Results reported in patent publication US12454514B2, “Quinazolinone compounds” (Cerepeut, Inc., priority 2019, dated 2025).

What follows are compounds tested on Molt-4 cells (assay: CellTiter-Glo Luminescent Cell Viability Assay (growth inhibition, 72 hour incubation)). Settings: Homo sapiens, 72 hours treatment, CellTiter Glo luminescence.
Type: cell-based
Text: CellTiter-Glo Luminescent Cell Viability Assay Kit was obtained from Promega. RPMI 1640 was obtained from Invitrogen. Fetal Bovine Serum (FBS) was obtained from Corning. L-glutamine was obtained from Invitrogen. 100× Penicillin-Streptomycin was obtained from HyClone. 0.05% Trypsin-EDTA (T-E) was obtained from Invitrogen. DPBS was obtained from Corning. DMSO was obtained from Sigma. Black 384 well plates were obtained from Greiner. 96-well V bottom plates were obtained from Axygen. For cell seeding on Day “−1”, the density of Molt-4 cells was adjusted according to supplier-recommended information. 50 μL cells were seeded in four 384-well-plates, and 50 μL DPBS was added to the edge wells. On Day 0, test compounds were dissolved in DMSO and stored in a nitrogen cabinet. The stock concentration of the test compounds was 120 mM. The stock concentration of the reference compounds was 10 mM. Test compounds (125 nL in DMSO) were added to the wells and serially diluted by three fold, providing 10 doses in each series with a maximum concentration of 300 μM. Equal volumes of DMSO without test compound were transferred to control rows in the well plate. Using this procedure, the DMSO concentration across the well plate was 0.25% (v/v). On Day 3 (after the cells were treated with the compounds for 72 hours), the plates were equilibrated at room temperature for approximately 30 minutes. 25 μL of CellTiter Glo reagent was added to each well, and the luminescence in each well was measured after 10 min using an ENVISION fluorescence plate reader (PerkinElmer). The calculation formula used for data analysis was: Inhibition %=(Max−Sample Value)/Max*100. Curves were fitted by Prism with a Sigmoidal dose-response (variable slope) model and generated by 4 Parameter Logistic Model or Sigmoidal Dose-Response Model, Y=Bottom+(Top−Bottom)/(1+10^((log EC50−x)*HillSlope)). To evaluate the anti-tumor activity of the compounds, the growth inhibitory effect of the compound was measured in various human cancer cell lines after 72 hour incubation. In the assays, the viability of the Molt-4 cells was greater than 85% during the initial cell plating. All the cell plates met the criteria that the coefficient of variation (CV)<10%. Observed IC50 values are summarized below, along with the observed IC50 value for reference compound 6-chloro-3-(2,4-dichloro-5-methoxyphenyl)-2-mercapto-7-methoxyquinazolin-4(3H)-one.

Q: For `COc1cc2nc(S)n(-c3cc(OC)c(Cl)cc3Cl)c(=O)c2cc1N` [Compound 8, 6-Amino-3-(2,4-dichloro-5-methoxyphenyl)-2-mercapto-7-methoxyquinazolin-4(3H)-one], which IC50 is on record?
A: The IC50 was under 3000 nM.

Q: `Cc1cc(-n2c(S)nc3ccc(Cl)cc3c2=O)c(Cl)cc1Cl` [Compound 10, 6-chloro-3-(2,4-Dichloro-5-methylphenyl)-2-mercaptoquinazolin-4(3H)-one] was tested. Which IC50 did it give?
A: The IC50 was 3000 to 30000 nM.

Q: With `C=Cc1c(OC)c(Cl)cc2c(=O)n(-c3cc(OC)c(Cl)cc3Cl)c(S)nc12` [Compound 12, 6-Chloro-3-(2,4-dichloro-5-methoxyphenyl)-2-mercapto-7-methoxy-8-vinylquinazolin-4(3H)-one] as the compound, how does the IC50 read?
A: Its IC50 is over 30000 nM.

Q: For `COc1cc(-n2c(S)nc3c(C4CC4)c(OC)c(Cl)cc3c2=O)c(Cl)cc1Cl` [Compound 13, 6-Chloro-8-cyclopropyl-3-(2,4-dichloro-5-methoxyphenyl)-2-mercapto-7-methoxyquinazolin-4(3H)-one], which IC50 is on record?
A: Its IC50 is 3000 to 30000 nM.

Q: Which IC50 does the source give for `COc1cc2nc(S)n(-c3cc(OC)c(OC)cc3Cl)c(=O)c2cc1Cl` [Compound 1, 6-Chloro-3-(2-chloro-4,5-dimethoxyphenyl)-2-mercapto-7-methoxyquinazolin-4(3H)-one] here?
A: Its IC50 is over 30000 nM.

Q: Which IC50 does the source give for `COc1cc2nc(S)n(-c3cc(F)c(Cl)cc3Cl)c(=O)c2cc1Cl` [Compound 4, 6-Chloro-3-(2,4-dichloro-5-fluorophenyl)-2-mercapto-7-methoxyquinazolin-4(3H)-one] here?
A: The IC50 was 3000 to 30000 nM.

Q: Which IC50 does the source give for `COc1cc(-n2c(S)nc3cc(C4CC4)c(Cl)cc3c2=O)c(Cl)cc1Cl` [Compound 11, 6-Chloro-7-cyclopropyl-3-(2,4-dichloro-5-methoxyphenyl)-2-mercaptoquinazolin-4(3H)-one] here?
A: The IC50 was 3000 to 30000 nM.

Q: With `COc1cc(-n2c(S)nc3cc(OC)c(Cl)cc3c2=O)c(OC)cc1Cl` [Compound 3, 6-Chloro-3-(4-chloro-2,5-dimethoxyphenyl)-2-mercapto-7-methoxyquinazolin-4(3H)-one] as the compound, how does the IC50 read?
A: The IC50 was 3000 to 30000 nM.

Q: How did the IC50 turn out when `COc1cc(-n2c(S)nc3cc(OC)c(C4CC4)cc3c2=O)c(Cl)cc1Cl` [Compound 9, 6-Cyclopropyl-3-(2,4-dichloro-5-methoxyphenyl)-2-mercapto-7-methoxyquinazolin-4(3H)-one] was run?
A: The IC50 was under 3000 nM.

Q: With `COc1cc(-n2c(S)nc3cc(OC)c(Cl)cc3c2=O)c(Cl)cc1F` [Compound 2, 6-Chloro-3-(2-chloro-4-fluoro-5-methoxyphenyl)-2-mercapto-7-methoxyquinazolin-4(3H)-one] as the compound, how does the IC50 read?
A: Its IC50 is 3000 to 30000 nM.

Q: Which IC50 does the source give for `COc1ccc2c(=O)n(-c3cc(OC)c(Cl)cc3Cl)c(S)nc2c1` [Compound 5, 3-(2,4-dichloro-5-methoxyphenyl)-2-mercapto-7-methoxyquinazolin-4(3H)-one] here?
A: The IC50 was 3000 to 30000 nM.

Q: Which IC50 does the source give for `COc1cc2nc(S)n(-c3cc(OC)c(Cl)cc3Cl)c(=O)c2cc1O` [Compound 7, 3-(2,4-Dichloro-5-methoxyphenyl)-6-hydroxy-2-mercapto-7-methoxyquinazolin-4(3H)-one] here?
A: The IC50 was under 3000 nM.

Q: How did the IC50 turn out when `COc1cc(-n2c(S)nc3cc(OC)c(OC)cc3c2=O)c(Cl)cc1Cl` [Compound 6, 3-(2,4-dichloro-5-methoxyphenyl)-2-mercapto-6,7-dimethoxyquinazolin-4(3H)-one] was run?
A: The IC50 was under 3000 nM.

Q: Which IC50 does the source give for `COc1cc(-n2c(S)nc3cc(OC)c(Cl)cc3c2=O)c(Cl)cc1Cl` [Ref. 1, 6-chloro-3-(2,4-dichloro-5-methoxyphenyl)-2-mercapto-7-methoxyquinazolin-4(3H)-one, reference compound] here?
A: The IC50 was 3000 to 30000 nM.
